# Measured values: ChEMBL document CHEMBL3217615, “Novel 3,5-bis(arylidiene)-4-piperidone based monocarbonyl analogs of curcumin: anticancer activity evaluation and mode of action study” (2014)
# Tests used:
# Format in all cases: functional
# [1] = Growth inhibition of human BT549 cells after 48 hrs by sulforhodamine B assay; settings: BT-549, 48 h
# [2] = test system: NCI-H460; assay: Growth inhibition of human NCI-H460 cells after 48 hrs by sulforhodamine B assay; settings: NCI-H460, 48 h; for CC50: read-out: LC50 (the source's name)
# [3] = test system: PC-3; assay: Growth inhibition of human PC3 cells assessed as cell growth at 10^-4 M after 48 hrs by sulforhodamine B assay; settings: PC-3, 48 h, read-out: Activity
# [4] = test system: SK-OV-3; assay: Growth inhibition of human SKOV3 cells assessed as cell growth at 10^-8 M after 48 hrs by sulforhodamine B assay; settings: SK-OV-3, 48 h; for growth at 0.01 µM: read-out: Activity; for TGI: read-out: pTGI (converted)
# [5] = Growth inhibition of human HOP92 cells after 48 hrs by sulforhodamine B assay; settings: HOP-92, 48 h; for CC50: read-out: LC50 (the source's name)
# [6] = test system: HL-60(TB); assay: Growth inhibition of human HL-60(TB) cells assessed as cell growth at 10^-7 M after 48 hrs by sulforhodamine B assay; settings: HL-60, 48 h, read-out: Activity
# [7] = test system: PC-3; assay: Growth inhibition of human PC3 cells assessed as cell growth at 10^-7 M after 48 hrs by sulforhodamine B assay; settings: PC-3, 48 h, read-out: Activity
# [8] = test system: A498; assay: Growth inhibition of human A498 cells assessed as cell growth at 10^-6 M after 48 hrs by sulforhodamine B assay; settings: A498, 48 h, read-out: Activity
# [9] = test system: COLO 205; assay: Growth inhibition of human COLO205 cells assessed as cell growth at 10^-6 M after 48 hrs by sulforhodamine B assay; settings: COLO 205, 48 h, read-out: Activity
# [10] = test system: HCT-116; assay: Growth inhibition of human HCT116 cells assessed as cell growth at 10^-6 M after 48 hrs by sulforhodamine B assay; settings: HCT-116, 48 h, read-out: Activity
# [11] = test system: NCI-H226; assay: Growth inhibition of human NCI-H226 cells after 48 hrs by sulforhodamine B assay; settings: NCI-H226, 48 h; for CC50: read-out: LC50 (the source's name)
# [12] = test system: DU-145; assay: Growth inhibition of human DU145 cells assessed as cell growth at 10^-7 M after 48 hrs by sulforhodamine B assay; settings: DU-145, 48 h, read-out: Activity
# [13] = Growth inhibition of human OVCAR5 cells assessed as cell growth at 10^-8 M after 48 hrs by sulforhodamine B assay; settings: OVCAR-5, 48 h; for growth at 0.01 µM: read-out: Activity; for TGI: read-out: pTGI (converted)
# [14] = test system: A498; assay: Growth inhibition of human A498 cells assessed as cell growth at 10^-7 M after 48 hrs by sulforhodamine B assay; settings: A498, 48 h, read-out: Activity
# [15] = Growth inhibition of human NCI-ADR-RES cells assessed as cell growth at 10^-8 M after 48 hrs by sulforhodamine B assay; settings: for growth at 0.01 µM: read-out: Activity; for TGI: read-out: pTGI (converted)
# [16] = test system: HT-29; assay: Growth inhibition of human HT-29 cells assessed as cell growth at 10^-4 M after 48 hrs by sulforhodamine B assay; settings: HT-29, 48 h, read-out: Activity
# [17] = Growth inhibition of human UO31 cells assessed as cell growth at 10^-8 M after 48 hrs by sulforhodamine B assay; settings: UO-31, 48 h; for growth at 0.01 µM: read-out: Activity; for TGI: read-out: pTGI (converted)
# [18] = test system: COLO 205; assay: Induction of apoptosis in human COLO205 cells assessed as caspase 3/7 activation at 10 uM by FLICA
# [19] = test system: MDA-MB-468; assay: Growth inhibition of human MDA-MB-468 cells assessed as cell growth at 10^-4 M after 48 hrs by sulforhodamine B assay; settings: MDA-MB-468, 48 h, read-out: Activity
# [20] = test system: IGROV-1; assay: Growth inhibition of human IGROV1 cells assessed as cell growth at 10^-8 M after 48 hrs by sulforhodamine B assay; settings: IGROV-1, 48 h; for growth at 0.01 µM: read-out: Activity; for TGI: read-out: pTGI (converted)
# [21] = Growth inhibition of human HOP92 cells assessed as cell growth at 10^-7 M after 48 hrs by sulforhodamine B assay; settings: HOP-92, 48 h, read-out: Activity
# [22] = test system: HCT-116; assay: Growth inhibition of human HCT116 cells assessed as cell growth at 10^-8 M after 48 hrs by sulforhodamine B assay; settings: HCT-116, 48 h; for growth at 0.01 µM: read-out: Activity; for TGI: read-out: pTGI (converted)
# [23] = test system: NCI-H322M; assay: Growth inhibition of human NCI-H322M cells after 48 hrs by sulforhodamine B assay; settings: for CC50: read-out: LC50 (the source's name)
# [24] = test system: RPMI-8226; assay: Growth inhibition of human RPMI8226 cells assessed as cell growth at 10^-8 M after 48 hrs by sulforhodamine B assay; settings: RPMI-8226, 48 h; for growth at 0.01 µM: read-out: Activity; for CC50: read-out: pLC50 (the source's name) (converted); for TGI: read-out: pTGI (converted)
# [25] = test system: MCF7; assay: Growth inhibition of human MCF7 cells assessed as cell growth at 10^-4 M after 48 hrs by sulforhodamine B assay; settings: MCF7, 48 h, read-out: Activity
# [26] = test system: SNB-19; assay: Growth inhibition of human SNB19 cells assessed as cell growth at 10^-8 M after 48 hrs by sulforhodamine B assay; settings: SNB-19, 48 h; for growth at 0.01 µM: read-out: Activity; for TGI: read-out: pTGI (converted)
# [27] = test system: SN12C; assay: Growth inhibition of human SN12C cells assessed as cell growth at 10^-6 M after 48 hrs by sulforhodamine B assay; settings: read-out: Activity
# [28] = test system: SF-268; assay: Growth inhibition of human SF268 cells assessed as cell growth at 10^-6 M after 48 hrs by sulforhodamine B assay; settings: SF-268, 48 h, read-out: Activity
# [29] = test system: NCI-H226; assay: Growth inhibition of human NCI-H226 cells assessed as cell growth at 10^-6 M after 48 hrs by sulforhodamine B assay; settings: NCI-H226, 48 h, read-out: Activity
# [30] = Growth inhibition of human SF539 cells after 48 hrs by sulforhodamine B assay; settings: SF-539, 48 h; for CC50: read-out: LC50 (the source's name)
# [31] = Growth inhibition of human OVCAR8 cells after 48 hrs by sulforhodamine B assay; settings: OVCAR-8, 48 h; for CC50: read-out: LC50 (the source's name)
# [32] = test system: CAKI-1; assay: Growth inhibition of human CAKI-1 cells assessed as cell growth at 10^-6 M after 48 hrs by sulforhodamine B assay; settings: CAKI-1, 48 h, read-out: Activity
structure (smiles),measurement,setting,value
O=C1/C(=C/c2ccc(Cl)cc2Cl)CN(S(=O)(=O)c2ccccc2)C/C1=C\c1ccc(Cl)cc1Cl,GI50,[1],987 nM
same,LC50,[1],> 100000 nM
same,TGI,[1],4210 nM
same,GI50,[2],208 nM
same,TGI,[2],447 nM
same,CC50,[2],959 nM
same,growth at 100 µM,[3],-26%
same,GI50,[4],7940 nM
same,LC50,[4],> 100000 nM
same,growth at 0.01 µM,[4],109%
same,TGI,[4],> 100000 nM
same,GI50,[5],1700 nM
same,TGI,[5],5550 nM
same,CC50,[5],> 100000 nM
same,growth at 0.1 µM,[6],92%
same,growth at 0.1 µM,[7],93%
same,growth at 1 µM,[8],48%
same,growth at 1 µM,[9],16%
same,growth at 1 µM,[10],-56%
same,GI50,[11],1040 nM
same,TGI,[11],2870 nM
same,CC50,[11],7920 nM
same,growth at 0.1 µM,[12],110%
same,GI50,[13],2140 nM
same,LC50,[13],> 100000 nM
same,growth at 0.01 µM,[13],92%
same,TGI,[13],7410 nM
same,growth at 0.1 µM,[14],61%
same,GI50,[15],1380 nM
same,LC50,[15],> 100000 nM
same,growth at 0.01 µM,[15],105%
same,TGI,[15],> 100000 nM
same,growth at 100 µM,[16],-16%
same,GI50,[17],234 nM
same,LC50,[17],4790 nM
same,growth at 0.01 µM,[17],88%
same,TGI,[17],646 nM
same,Activity,[18],35.5%
same,growth at 100 µM,[19],-34%
same,GI50,[20],316 nM
same,LC50,[20],> 100000 nM
same,growth at 0.01 µM,[20],116%
same,TGI,[20],646 nM
same,growth at 0.1 µM,[21],77%
same,GI50,[22],200 nM
same,LC50,[22],912 nM
same,growth at 0.01 µM,[22],99%
same,TGI,[22],427 nM
same,GI50,[23],680 nM
same,TGI,[23],3560 nM
same,CC50,[23],> 100000 nM
same,GI50,[24],224 nM
same,growth at 0.01 µM,[24],104%
same,CC50,[24],> 100000 nM
same,TGI,[24],603 nM
same,growth at 100 µM,[25],9%
same,GI50,[26],316 nM
same,LC50,[26],> 100000 nM
same,growth at 0.01 µM,[26],92%
same,TGI,[26],2880 nM
same,growth at 1 µM,[27],-15%
same,growth at 1 µM,[28],24%
same,growth at 1 µM,[29],52%
same,GI50,[30],424 nM
same,TGI,[30],2070 nM
same,CC50,[30],> 100000 nM
same,GI50,[31],286 nM
same,TGI,[31],958 nM
same,CC50,[31],> 100000 nM
same,growth at 1 µM,[32],77%
Cc1ccc(S(=O)(=O)N2C/C(=C\c3cc(F)cc(F)c3)C(=O)/C(=C/c3cc(F)cc(F)c3)C2)cc1,GI50,[1],340 nM
same,LC50,[1],3520 nM
same,TGI,[1],931 nM
same,GI50,[2],828 nM
same,TGI,[2],2870 nM
same,CC50,[2],9220 nM
same,growth at 100 µM,[3],-84%
same,GI50,[4],1820 nM
same,LC50,[4],37200 nM
same,growth at 0.01 µM,[4],103%
same,TGI,[4],5620 nM
same,GI50,[5],1110 nM
same,TGI,[5],3300 nM
same,CC50,[5],9780 nM
same,growth at 0.1 µM,[6],89%
same,growth at 0.1 µM,[7],89%
same,growth at 1 µM,[8],91%
same,growth at 1 µM,[9],35%
same,growth at 1 µM,[10],-32%
same,GI50,[11],8620 nM
same,TGI,[11],39600 nM
same,CC50,[11],> 100000 nM
same,growth at 0.1 µM,[12],111%
same,GI50,[13],1020 nM
same,LC50,[13],7410 nM
same,growth at 0.01 µM,[13],95%
same,TGI,[13],2750 nM
same,growth at 0.1 µM,[14],93%
same,GI50,[15],437 nM
same,LC50,[15],75900 nM
same,growth at 0.01 µM,[15],104%
same,TGI,[15],10200 nM
same,growth at 100 µM,[16],-75%
same,GI50,[17],1100 nM
same,LC50,[17],5130 nM
same,growth at 0.01 µM,[17],91%
same,TGI,[17],2340 nM
same,Activity,[18],41.5%
same,growth at 100 µM,[19],-79%
same,GI50,[20],437 nM
same,LC50,[20],5130 nM
same,growth at 0.01 µM,[20],106%
same,TGI,[20],1550 nM
same,growth at 0.1 µM,[21],69%
same,GI50,[22],209 nM
same,LC50,[22],1950 nM
same,growth at 0.01 µM,[22],107%
same,TGI,[22],537 nM
same,GI50,[23],4700 nM
same,TGI,[23],22800 nM
same,CC50,[23],> 100000 nM
same,GI50,[24],37.1 nM
same,growth at 0.01 µM,[24],94%
same,CC50,[24],93300 nM
same,TGI,[24],331 nM
same,growth at 100 µM,[25],-72%
same,GI50,[26],219 nM
same,LC50,[26],2820 nM
same,growth at 0.01 µM,[26],87%
same,TGI,[26],759 nM
same,growth at 1 µM,[27],11%
same,growth at 1 µM,[28],21%
same,growth at 1 µM,[29],90%
same,GI50,[30],1210 nM
same,TGI,[30],2870 nM
same,CC50,[30],6810 nM
same,GI50,[31],301 nM
same,TGI,[31],1770 nM
same,CC50,[31],16300 nM
same,growth at 1 µM,[32],16%
